Assays:
[1] = test system: Soluble extracts of P. vinckei; test: Proteolytic activity of P. vinckei soluble extracts, substrate Z-Phe-Arg-AFC; assay type: biochemical; conditions: read-out: IC50, proteolytic activity of P. vinckei extract
Method: (§1) Treatment of Malaria with Mu-Phe-HPhe-O-Ph. Soluble extracts of P. falciparum and P. vinckei were prepared and proteolytic activity was assayed with fluorogenic peptide substrate Z-Phe-Arg-AFC. The activity of control samples was compared with activities in the presence of multiple concentrations of Mu-Phe-HPhe-O-Ph. The concentrations at which activity was inhibited by 50% (IC50) was calculated.
as §1, with “with Mu-Leu-HPhe-O-Ph.” for “with Mu-Phe-HPhe-O-Ph.”, “of Mu-Leu-HPhe-O-Phe.” for “of Mu-Phe-HPhe-O-Ph.”, “The concentration” for “The concentrations”, “by 50%.” for “by 50%”
as §1, with “with Mu-Phe-Arg(NO2)-O-Ph.” for “with Mu-Phe-HPhe-O-Ph.”, “of Mu-Phe-Arg(NO2)-O-Ph.” for “of Mu-Phe-HPhe-O-Ph.”, “The concentration” for “The concentrations”
as §1, with “with Mu-Tyr(OCH3)2 -HPhe-O-Ph.” for “with Mu-Phe-HPhe-O-Ph.”, “samples as” for “samples was”, “of Mu-Tyr(OCH3)2 -HPhe-O-Ph.” for “of Mu-Phe-HPhe-O-Ph.”, “The concentration” for “The concentrations”

[2] = test system: 45Ca2+-labelled bones (calvaria) of neonatal mice; test: Parathyroid hormone-stimulated 45Ca2+ release from cultured mouse calvaria; assay type: cell-based; conditions: 24 hour period, PTH-stimulated
Method: (§2) Treatment of Osteo Arthritis with Mu-Phe-HPhe-O-Ph. ^45 Ca^2+ -labelled bones (calvaria) of neonatal mice were maintained in culture. The effect of the test compound on the rate of parathyroid hormone-stimulated ^45 Ca^2+ release was measured over a 24 hour period. An inhibitor of bone resorption (at maximal concentrations) would be expected to inhibit this rate by approximately 70%. The nature of the residual, uninhibitable ^45 Ca^2+ -release is not known but could represent chemical exchange of ^45 Ca^2+ with the medium. Mu-Phe-HPhe-O-Ph was dissolved in dimethylsulphoxide which was present in the incubation at concentrations <0.1%.
as §2, with “Mu-Leu-HPhe-O-Ph.” for “Mu-Phe-HPhe-O-Ph.”, “Mu-Leu-HPhe-O-Ph” for “Mu-Phe-HPhe-O-Ph”
as §2, with “Mu-Tyr(OMe)-HPhe-O-Ph.” for “Mu-Phe-HPhe-O-Ph.”, “Mu-Tyr(OMe)-HPhe-O-Ph” for “Mu-Phe-HPhe-O-Ph”
as §2, with “Z-Phe-Ala-O-Ph.” for “Mu-Phe-HPhe-O-Ph.”, “Z-Phe-Ala-O-Ph” for “Mu-Phe-HPhe-O-Ph”
as §2, with “Mu-Tyr(OMe)-HPhe-O-Ph.” for “Mu-Phe-HPhe-O-Ph.”, “labelled” for “-labelled”, “Mu-Tyr(OMe)-HPhe-O-Ph” for “Mu-Phe-HPhe-O-Ph”

[3] = molecular target: Soluble extracts of P. falciparum (cysteine proteinase); test: Proteolytic activity of P. falciparum soluble extracts, substrate Z-Phe-Arg-AFC; assay type: biochemical; conditions: read-out: IC50, proteolytic activity of P. falciparum extract
Method: Soluble extracts of P. falciparum and P. vinckei were prepared and proteolytic activity was assayed with fluorogenic peptide substrate Z-Phe-Arg-AFC. […] The concentrations at which activity was inhibited by 50% (IC50) was calculated.
Soluble extracts of P. falciparum and P. vinckei were prepared and proteolytic activity was assayed with fluorogenic peptide substrate Z-Phe-Arg-AFC. […] The concentration at which activity was inhibited by 50%. (IC50) was calculated.
Soluble extracts of P. falciparum and P. vinckei were prepared and proteolytic activity was assayed with fluorogenic peptide substrate Z-Phe-Arg-AFC. […] The concentration at which activity was inhibited by 50% (IC50) was calculated.
The concentration at which activity was inhibited by 50% (IC50) was calculated.

bone resorption = test: In vivo bone resorption by urinary 14C-tetracycline excretion in rats
Method: Treatment of Osteo Arthritis with Mu-Phe-HPhe-O-Ph. The skeletons of young growing rats were radioactively labelled by injections with ^14 C-tetracycline over a 10 day period. The amount of bone resorption was then determined each day as the amount of radioactivity excreted in the urine. After 10 days of control excretion, test compounds were administered for three days subcutaneously and their effects on the daily excretion of tetracycline were determined. Tested compounds were dissolved in DMSO/PEG at a concentration of 25 mg/ml and were injected once per day subcutaneously in a volume of 2 ml/kg. Treatment of Osteo Arthritis with Mu-Leu-HPhe-O-Ph. The skeletons of young growing rats were radioactively labelled by injections with ^14 C-tetracycline over a 10 day period. The amount of bone resorption was then determined each day as the amount of radioactivity excreted in the urine. After 10 days of control excretion, test compounds were administered for three days subcutaneously and their effects on the daily excretion of tetracycline were determined. Tested compounds were dissolved in DMSO/PEG at a concentration of 25 mg/ml and were injected once per day subcutaneously in a volume of 2 ml/kg.

O=C(O)Cc1ccccc1OCC(=O)[C@H](CCc1ccccc1)NC(=O)[C@H](Cc1ccccc1)NC(=O)N1CCOCC1 [Mu-Phe-HPhe-O-Ph, (4-morpholinylcarbonyl)-L-phenylalanyl-L-homophenylalanyl-(2-carboxymethyl)phenoxymethyl ketone]
IC50 [1]: 5.1 nM | inhibition of the rate of 45Ca2+-release ([2]; 1 μm inhibitor): 50% | additional inhibition of the rate of 45Ca2+-release ([2]; 100 μm inhibitor): 20% | IC50 [3]: 3 nM | inhibition of bone resorption in vivo as measured by tetracycline excretion (bone resorption; subcutaneous once per day for three days, 25 mg/ml in DMSO/PEG, 2 ml/kg): as great as that of a maximal dose of calcitonin | time of maximum effect after dosing commenced (bone resorption; subcutaneous once per day, 25 mg/ml, 2 ml/kg): 24 h | findings at the sites of injection at end of experiment (bone resorption; subcutaneous, DMSO/PEG, three days, histology: inflammation of subcutaneous fat, tissue necrosis): lesions were visible at the sits of injection
